Data taken from the NIST ThermoML archive (doi:10.1016/j.jct.2013.06.020).

How the values were obtained:
[1] = 298.15 K, 101.33 kPa, Liquid; for speed of sound: Sing-around technique in a fixed-path interferometer; for mass density: Vibrating tube method
[2] = mn = molality of the nth substance listed, in mol/kg; conditions: 298.15 K, 101 kPa, Liquid; for speed of sound: Sing-around technique in a fixed-path interferometer; for mass density: Vibrating tube method

CCCCOC(=O)C(C)O (stereo unspecified) [butyl 2-hydroxypropanoate]
[1]
Conditions	mass density [kg/m3]	speed of sound [m/s]
–	977.283	1285

CCOC(=O)CCC(C)=O [ethyl levulinate]
[1]
Conditions	mass density [kg/m3]	speed of sound [m/s]
–	1007.54	1351.2

O=Cc1ccco1 [2-furaldehyde]
[1]
Conditions	mass density [kg/m3]	speed of sound [m/s]
–	1154.81	1440.2

COC(=O)CCC(C)=O [methyl levulinate]
[1]
Conditions	mass density [kg/m3]	speed of sound [m/s]
–	1045.4	1386.2

OCc1ccco1 [2-hydroxymethylfuran]
[1]
Conditions	mass density [kg/m3]	speed of sound [m/s]
–	1130.27	1449.8

COC(=O)C(C)O (stereo unspecified) [methyl 2-hydroxypropanoate]
[1]
Conditions	mass density [kg/m3]	speed of sound [m/s]
–	1087.43	1338.8

CCCCOC(=O)CCC(C)=O [butyl levulinate]
[1]
Conditions	mass density [kg/m3]	speed of sound [m/s]
–	969.935	1341.3

COC(=O)C(C)O (stereo unspecified) [methyl 2-hydroxypropanoate] + O
[2]
Conditions	mass density [kg/m3]	speed of sound [m/s]
m1 = 0.0487	997.862	1499
m1 = 0.0568	997.968	1499.5
m1 = 0.0707	998.157	1500.4
m1 = 0.0956	998.501	1501.2
m1 = 0.1039	998.614	1501.6
m1 = 0.1117	998.722	1502
m1 = 0.1338	999.035	1503.1
m1 = 0.1539	999.294	1504
m1 = 0.223	1000.24	1507.8
m1 = 0.3212	1001.55	1511.7
m1 = 0.484	1003.64	1518.2
m1 = 0.7855	1007.52	1529
m1 = 0.9699	1009.78	1535.3
m1 = 1.168	1012.12	1542.1
m1 = 1.377	1014.5	1548.7
m1 = 1.56	1016.48	1554.2
m1 = 1.776	1018.7	1561.9
m1 = 1.938	1020.4	1566.9
m1 = 2.237	1023.27	1575.8
m1 = 2.632	1026.82	1588.2
m1 = 2.941	1029.45	1597
m1 = 3.322	1032.46	1606.5
m1 = 3.906	1036.62	1617.2

C=CC(=O)OC [methyl propenoate]
[1]
Conditions	mass density [kg/m3]	speed of sound [m/s]
–	949.174	1169

OCc1ccco1 [2-hydroxymethylfuran] + O
[2]
Conditions	mass density [kg/m3]	speed of sound [m/s]
m1 = 0.0475	997.854	1498.9
m1 = 0.0537	997.937	1499.3
m1 = 0.0559	997.967	1499.4
m1 = 0.0625	998.054	1499.7
m1 = 0.0688	998.143	1500
m1 = 0.0781	998.269	1500.3
m1 = 0.0999	998.571	1501.3
m1 = 0.1027	998.607	1501.5
m1 = 0.12	998.847	1502.2
m1 = 0.1433	999.158	1503.3
m1 = 0.1651	999.552	1504.3
m1 = 0.2327	1000.39	1507.1
m1 = 0.2468	1000.58	1507.8
m1 = 0.4458	1003.25	1515.9
m1 = 0.618	1005.5	1522.3
m1 = 0.8613	1008.56	1530.4
m1 = 1.054	1010.95	1535.9
m1 = 1.236	1012.93	1540.5
m1 = 1.441	1015.25	1545.5
m1 = 1.656	1017.56	1550
m1 = 1.835	1019.32	1554
m1 = 2.062	1021.73	1559.4
m1 = 2.545	1026.13	1569.5
m1 = 2.874	1028.8	1577.2

Cc1ccc(C=O)o1 [5-methylfurfural]
[1]
Conditions	mass density [kg/m3]	speed of sound [m/s]
–	1103.2	1447

CCOC(=O)C(C)O (racemic) [DL-ethyl lactate]
[1]
Conditions	mass density [kg/m3]	speed of sound [m/s]
–	1028.37	1279.7

OCC1CCCO1 (stereo unspecified) [2-tetrahydrofurylmethanol]
[1]
Conditions	mass density [kg/m3]	speed of sound [m/s]
–	1050.75	1485.2

CCOC(=O)C(C)O (stereo not drawn) [DL-ethyl lactate] + O
[2]
Conditions	mass density [kg/m3]	speed of sound [m/s]
m1 = 0.0348	997.552	1498.7
m1 = 0.0378	997.579	1499
m1 = 0.0445	997.674	1499.6
m1 = 0.0513	997.748	1500
m1 = 0.063	997.869	1500.5
m1 = 0.0719	997.967	1501.1
m1 = 0.0895	998.152	1502.2
m1 = 0.1026	998.294	1503
m1 = 0.1207	998.489	1504
m1 = 0.1439	998.732	1505.6
m1 = 0.1856	999.184	1508.6
m1 = 0.2723	1000.1	1514
m1 = 0.5249	1002.7	1526
m1 = 0.6911	1004.35	1533.5
m1 = 0.8467	1005.83	1539.6
m1 = 1.02	1007.41	1545.3
m1 = 1.188	1008.87	1551.3
m1 = 1.359	1010.23	1556.1
m1 = 1.683	1012.78	1563.9
m1 = 2.058	1015.37	1572.5
m1 = 2.41	1017.49	1579
m1 = 2.725	1019.27	1585.2
m1 = 3.226	1021.64	1593.3
m1 = 3.731	1023.63	1601.1
m1 = 4.237	1025.37	1607.5
